Paper PMC3968527, “Dynamic mass redistribution analysis of endogenous β-adrenergic receptor signaling in neonatal rat cardiac fibroblasts” (Pharmacology Research & Perspectives, 2014)
Like-named read-outs stand apart in the source and are kept apart here.

Assays:
cAMP generation in NRCF = test: FRET detection of cAMP generation using ICUE3 in NRCF; type: cell-based, rat; details: for effect on ISO-induced FRET (cAMP generation): antagonist 10 μmol/L, ISO 1 μmol/L
Procedure: ICUE3 adenovirus (Ad-ICUE3) was generously supplied by Dr. Yang Xiang (UC Davis). NRCF were seeded in the fibronectin-coated 10 mm glass-bottom insert of 35 mm dishes (MatTek Corporation, Ashland, MA) at 5 × 10^4 cells/10 mm insert and infected with Ad-ICUE3 at a multiplicity of infection (MOI) of 40 for 24 h with or without CTX addition (100 ng/mL overnight). 24 h after infection, the cells were rinsed and media replaced with imaging buffer, as previously described (Tilley et al. [2010]), prior to imaging using a Leica DMI4000B inverted microscope with a Leica DFC365 FX 1.4-megapixel monochrome digital camera with cyan fluorescent protein (CFP) excitation and CFP and yellow fluorescent protein (YFP) emissions measured every 2 sec. Cells were pretreated for 5 min with buffer or antagonists then, following 30 sec of baseline reads, the cells were stimulated with isoproterenol. The entire field-of view at 20× magnification was used to capture changes in fluorescence resonance energy transfer (FRET) in the NRCF population and each treatment condition was performed independently at least three times. Quantification of the ICUE3 ratio was calculated as changes in CFP emission/YFP emission over time, normalized to baseline.
EC50 and Emax values were attained via nonlinear regression curve fitting of the DMR, ICUE3, or EGFR internalization responses using Prism 5.0 software (GraphPad Software Inc.; San Diego, CA). Statistical analyses were performed using a one-way analysis of variance (ANOVA) followed by a Newman–Keuls multiple comparisons test or a two-tailed unpaired t-test, as appropriate. A value of P < 0.05 was considered statistically significant.

[1] = tested on: endogenous βAR in primary neonatal rat cardiac fibroblasts (NRCF); test: Dynamic mass redistribution (DMR) response to βAR ligands in NRCF; type: cell-based; details: for EC50: read-out: EC50 (DMR)
dynamin = tested on: dynamin; design: method as in Kirchhausen et al. [2008]; details: known/reported IC50; ref Kirchhausen et al. [2008]; cited from earlier work
Flag-EGFR-mYFP = test: EGFR internalization, on-cell western for loss of surface Flag-EGFR-mYFP in NRCF; type: cell-based, rat; details: Fig. 7C, 60 min treatment
Procedure: NRCF were seeded either in 35 mm glass-bottom dishes as described above or in clear-bottom black-walled 96-well plates (655090; Greiner Bio-One, Monroe, NC) at 3 × 10^4 cells/well and infected with Ad-Flag-EGFR-mYFP (constructed at Vector Biolabs, Philadelphia, PA) at an MOI of 200 for 24 h prior to stimulation with agonist as indicated. After 1 h, cells were fixed in 4% paraformaldehyde (163201145; Wako Chemicals, Richmond, VA) for 20 min, rinsed with phosphate-buffered saline (Corning/Cellgro, 21-030-CV) and on-cell western staining (nonpermeabolized) was performed using anti-Flag M2 antibody (1:1000, 3 h at RT, Sigma, F1804), IRDye® 800CW Conjugated Goat (polyclonal) Anti-mouse secondary antibody (1:1000, 1 h at RT, LI-COR, 926-32210) and DRAQ5 (1:5000, 1 h at RT, Cell Signaling Technology, #4084) following the LI-COR on-cell protocol. Flag and DRAQ5 signals were detected using Odyssey CLx infrared imaging system (LI-COR Biosciences, Lincoln, NE) and YFP signal was measured with a Tecan M1000 plate reader. Amount of EGFR internalization was calculated by normalizing the Flag signal to both the DRAQ5 (cell number control) and YFP (infection control) signals: Flag/DRAQ5/YFP. […] San Diego, CA). Statistical analyses were performed using a one-way analysis of variance (ANOVA) followed by a Newman–Keuls multiple comparisons test or a two-tailed unpaired t-test, as appropriate. […]

EGFR in NRCF = test: EGFR-dependent DMR response to EGF in NRCF; type: cell-based, rat
[2] = antagonist 10 μmol/L, ISO 100 nmol/L
[3] = Rattus norvegicus, Cardiac fibroblast, agonist + buffer, 3-day-old NRCF
[4] = agonist + buffer, 3-day-old NRCF
[5] = agonist + cholera toxin (100 ng/mL)
[6] = βAR antagonist alone, positive-deflected DMR (inverse agonism)
[7] = agonist + propranolol (1 μmol/L)

## Cn1cc(C(F)(F)F)nc1-c1ccc(OCC(O)CNCCOc2ccc(O)c(C(N)=O)c2)cc1 (stereo not shown) [CGP 20712A]
cAMP generation in NRCF
  effect on ISO-induced FRET (cAMP generation): partial blockade
[1]; 100 μmol/L, likely due to a toxic effect on the cells
  DMR response of antagonist alone: extreme positive DMR deflection
[1]; [2]
  effect on ISO-mediated DMR effect: very small, though significant, decrease

## CC(CCc1ccc(O)cc1)NCCc1ccc(O)c(O)c1 (stereo not shown) [Dobutamine]
[1]; Prop 1 μmol/L
  DMR responses in presence of Prop: completely blocked
[1]; [3]
  EC50: 0.134 ± 0.0117 µM
[1]; [4]
  Emax (DMR): −217.1 ± 3.5 pm
[1]; [5]
  Emax (DMR): −86.0 ± 3.4 pm
  EC50: 0.05 ± 0.0168 µM
[1]; at micromolar concentrations
  maximal DMR response, % of the ISO and Sal responses: ~75%

## O=C(N/N=C/c1ccc(O)c(O)c1)c1cc2ccccc2cc1O [Dyn, dynasore]
[1]; Dyn pretreatment 100 μmol/L, 30 min
  effect on ISO-mediated DMR effect: enhanced
dynamin
  IC50: 15 µM

## COc1cc2ncnc(Nc3ccc(F)c(Cl)c3)c2cc1OCCCN1CCOCC1 [Gef, gefitinib]
[1]; ISO 100 nmol/L, CTX 100 ng/mL overnight, Gef 1 μmol/L
  ISO-induced DMR response after pretreatment, % of the buffer-pretreated ISO response: ~65%
[1]; ISO 100 nmol/L, CTX 100 ng/mL overnight, Gef 1 μmol/L, Fig. 7F
  reduction of the ISO DMR response: ~35%

## Cc1ccc(OCC(O)C(C)NC(C)C)c2c1CCC2 (stereo not shown) [ICI 188,551, ICI 118,551]
cAMP generation in NRCF
  effect on ISO-induced FRET (cAMP generation): significantly blocked
[1]; [2]
  effect on ISO-mediated DMR effect: very significantly reduced
[1]; [6]
  Emax (DMR): 117.3 ± 5.4 pm
  EC50: 0.192 ± 0.0617 µM

## CC(C)NCC(O)c1ccc(O)c(O)c1 (stereo not shown) [Isoproterenol]
cAMP generation in NRCF; Rattus norvegicus, Fig. 5B
  EC50: 0.0074 ± 0.0056 µM
[1]; 8-day-old NRCF, Fig. 1D
  Emax (DMR): −40 ± 5.3 pm
[1]; ISO 100 nmol/L, 1 × 10^4 cells per well
  ISO DMR response, % of the response attained with 2.5 × 10^4 cells: ~25%
[1]; ISO 100 nmol/L, 1.5 × 10^4 cells per well
  ISO DMR response, % of the response attained with 2.5 × 10^4 cells: ~50%
[1]; [3]
  EC50: 0.0154 ± 0.0042 µM
[1]; [4]
  Emax (DMR): −266.1 ± 8.2 pm
[1]; [5]
  Emax (DMR): −109.6 ± 6.4 pm
  EC50: 0.0301 ± 0.0174 µM
[1]; [7]
  Emax (DMR): −247.6 ± 4.3 pm
  EC50: 0.809 ± 0.0841 µM
Flag-EGFR-mYFP
  EC50: 0.0171 ± 0.0055 µM

## CC(C)NCC(O)COc1cccc2ccccc12 (stereo not shown) [Propranolol, propranolol]
cAMP generation in NRCF
  effect on ISO-induced FRET (cAMP generation): significantly blocked
[1]; [2]
  effect on ISO-mediated DMR effect: very significantly reduced
[1]; [6]
  Emax (DMR): 81.2 ± 2.5 pm

## COc1ccc(C2CNC(=O)C2)cc1OC1CCCC1 (stereo not shown) [Rol, rolipram]
cAMP generation in NRCF; Rol 10 nmol/L
  effect on ISO-mediated ICUE3 response: significantly enhanced
[1]; Rol 10 nmol/L
  effect on ISO-mediated DMR response: significantly enhanced

## CC(C)(C)NCC(O)c1ccc(O)c(CO)c1 (stereo not shown) [Salbutamol, salbutamol]
[1]; [3]
  EC50: 0.0156 ± 0.0008 µM
[1]; [4]
  Emax (DMR): −257.1 ± 1.8 pm
[1]; [5]
  Emax (DMR): −122.4 ± 2.1 pm
  EC50: 0.0301 ± 0.0049 µM
[1]; [7]
  Emax (DMR): −251.9 ± 6.3 pm

## cholera toxin [CTX]
cAMP generation in NRCF
  effect on ISO-dependent cAMP generation: substantially reduced
[1]
  ISO-induced DMR response after pretreatment, % of the buffer-pretreated ISO response: ~35%
  reduction of the ISO DMR response: ~65%

## epidermal growth factor [EGF]
EGFR in NRCF; Fig. S2D, read-out: EC50 (positive-deflected DMR)
  EC50: < 0.001 µM
EGFR in NRCF; printed in picture of Fig. S2D, read-out: EC50 (peak DMR)
  EC50: 0.00045 ± 3e-05 µM
